Results as given in the NIST ThermoML archive (doi:10.1021/acs.jced.6b00269).

Conditions: for viscosity / mass density: 101.33 kPa, Liquid; for viscosity: Cone and plate viscometry; for mass density: Vibrating tube method; for Normal melting temperature: Crystal, DTA; for Glass transition temperature: DSC

CCCCCCCC[P+](CC)(CC)CC.O=[N+]([O-])c1c[n-]cn1 [triethyloctylphosphonium 4-nitroimidazolide]
Conditions | Normal melting temperature [°C] | mass density [kg/m3] | viscosity [mPa·s]
– | -28 | – | –
278.15 K | – | – | 1220
283.15 K | – | 1037.8 | 804
288.15 K | – | 1034.8 | 547
293.15 K | – | 1031.8 | 382
295.15 K | – | 1030.6 | –
298.15 K | – | 1028.8 | 276
303.15 K | – | 1025.8 | 204
308.15 K | – | 1022.9 | 155
313.15 K | – | 1020.1 | 120
318.15 K | – | 1017.2 | 95
323.15 K | – | 1014.3 | 76
328.15 K | – | 1011.4 | 62
333.15 K | – | 1008.5 | 52
338.15 K | – | 1005.7 | –
343.15 K | – | 1002.8 | –
348.15 K | – | 1000 | –
353.15 K | – | 997.1 | –

CCCCCCCCCCCCCC[P+](CCCCCC)(CCCCCC)CCCCCC.O=[N+]([O-])c1cn[n-]c1 [trihexyl(tetradecyl)phosphonium 4-nitropyrazolide]
Conditions | Glass transition temperature [°C] | mass density [kg/m3] | viscosity [mPa·s]
– | -75 | – | –
278.15 K | – | – | 3560
283.15 K | – | 948.8 | 2290
288.15 K | – | 945.6 | 1500
293.15 K | – | 942.3 | 1020
295.15 K | – | 941.1 | –
298.15 K | – | 939.3 | 710
303.15 K | – | 936.4 | 510
308.15 K | – | 933.4 | 375
313.15 K | – | 930.4 | 280
318.15 K | – | 927.4 | 214
323.15 K | – | 924.5 | 167
328.15 K | – | 921.6 | 133
333.15 K | – | 918.7 | 108
338.15 K | – | 915.8 | 88
343.15 K | – | 912.8 | 74
348.15 K | – | 909.9 | –
353.15 K | – | 907 | –

CC(=O)[O-].CCCCCCCCCCCCCC[P+](CCCCCC)(CCCCCC)CCCCCC [trihexyl(tetradecyl)phosphonium acetate]
Conditions | mass density [kg/m3] | viscosity [mPa·s]
278.15 K | – | 1820
283.15 K | 895 | 1200
288.15 K | 891.9 | 814
293.15 K | 888.9 | 566
295.15 K | 887.6 | –
298.15 K | 885.8 | 406
303.15 K | 882.8 | 298
308.15 K | 879.8 | 224
313.15 K | 876.8 | 172
318.15 K | 873.7 | 135
323.15 K | 870.7 | 107
328.15 K | 867.7 | –
333.15 K | 864.7 | –
338.15 K | 861.7 | –
343.15 K | 858.7 | –
348.15 K | 855.7 | –
353.15 K | 852.7 | –

CCCC[S+]1CCCCC1.O=S(=O)([N-]S(=O)(=O)C(F)(F)F)C(F)(F)F [1-butylthianium bis(trifluoromethylsulfonyl)imide]
Conditions | Glass transition temperature [°C] | Normal melting temperature [°C] | viscosity [mPa·s]
– | -82 | -10 | –
278.15 K | – | – | 398
283.15 K | – | – | 279
288.15 K | – | – | 200
293.15 K | – | – | 148
298.15 K | – | – | 112
303.15 K | – | – | 88
308.15 K | – | – | 70
313.15 K | – | – | 57

CCCCCCSC(N(C)C)=[N+](C)C.O=S(=O)([N-]S(=O)(=O)C(F)(F)F)C(F)(F)F
Conditions | Glass transition temperature [°C] | mass density [kg/m3] | viscosity [mPa·s]
– | -82 | – | –
278.15 K | – | – | 268
283.15 K | – | 1352.2 | 193
288.15 K | – | 1347.8 | 143
293.15 K | – | 1343.4 | 109
295.15 K | – | 1341.6 | –
298.15 K | – | 1339 | 85
303.15 K | – | 1334.6 | 68
308.15 K | – | 1330.2 | 55
313.15 K | – | 1325.8 | –
318.15 K | – | 1321.5 | –
323.15 K | – | 1317.1 | –
328.15 K | – | 1312.8 | –
333.15 K | – | 1308.5 | –
338.15 K | – | 1304.2 | –
343.15 K | – | 1299.8 | –
348.15 K | – | 1295.6 | –
353.15 K | – | 1291.3 | –

CCCCCCCCCC[P+](CC)(CC)CC.O=[N+]([O-])c1cn[n-]c1 [decyltriethylphosphonium 4-nitropyrazolide]
Conditions | Glass transition temperature [°C] | Normal melting temperature [°C] | mass density [kg/m3] | viscosity [mPa·s]
– | -71 | 11 | – | –
278.15 K | – | – | – | 1620
283.15 K | – | – | 1020 | 1030
288.15 K | – | – | 1017 | 678
293.15 K | – | – | 1013.9 | 461
295.15 K | – | – | 1012.7 | –
298.15 K | – | – | 1010.9 | 325
303.15 K | – | – | 1007.9 | 236
308.15 K | – | – | 1004.9 | 175
313.15 K | – | – | 1002 | 133
318.15 K | – | – | 999.1 | 104
323.15 K | – | – | 996.2 | 82
328.15 K | – | – | 993.3 | 66
333.15 K | – | – | 990.4 | 54
338.15 K | – | – | 987.5 | –
343.15 K | – | – | 984.6 | –
348.15 K | – | – | 981.7 | –
353.15 K | – | – | 978.8 | –

CC[P+](CC)(CC)COCCOC.O=S(=O)([N-]S(=O)(=O)C(F)(F)F)C(F)(F)F
Conditions | mass density [kg/m3] | viscosity [mPa·s]
278.15 K | – | 84
283.15 K | 1373.9 | 65
288.15 K | 1369.4 | 51
293.15 K | 1364.8 | –
295.15 K | 1363 | –
298.15 K | 1360.3 | –
303.15 K | 1355.7 | –
308.15 K | 1351.2 | –
313.15 K | 1346.8 | –
318.15 K | 1342.3 | –
323.15 K | 1337.9 | –
328.15 K | 1333.4 | –
333.15 K | 1329 | –
338.15 K | 1324.6 | –
343.15 K | 1320.2 | –
348.15 K | 1315.8 | –
353.15 K | 1311.5 | –

CCCC[n+]1cccn1C.O=S(=O)([N-]S(=O)(=O)C(F)(F)F)C(F)(F)F [1-butyl-2-methylpyrazolium bis(trifluoromethylsulfonyl)imide]
Conditions | Glass transition temperature [°C] | mass density [kg/m3] | viscosity [mPa·s]
– | -82 | – | –
278.15 K | – | – | 214
283.15 K | – | 1465.4 | 155
288.15 K | – | 1460.7 | 116
293.15 K | – | 1456 | 88
295.15 K | – | 1454.06 | –
298.15 K | – | 1451.2 | 70
303.15 K | – | 1446.5 | 55
308.15 K | – | 1441.8 | –
313.15 K | – | 1437.1 | –
318.15 K | – | 1432.4 | –
323.15 K | – | 1427.7 | –
328.15 K | – | 1423 | –
333.15 K | – | 1418.4 | –
338.15 K | – | 1413.8 | –
343.15 K | – | 1409.1 | –
348.15 K | – | 1404.6 | –
353.15 K | – | 1400 | –
